The target in this test is PIK3CA (human) (UniProt P42336). As to the kind of experiment: Enzyme Assay.

The record followed here is the Kinase Knowledgebase extract (Sharma et al. 2016).

For orientation: IC50 means the midpoint of a concentration-inhibition curve. The low end stands for greater potency in that assay, the high end for weaker potency in that assay.

PIK3CA (human), sequence (P42336 whole entry, looked up): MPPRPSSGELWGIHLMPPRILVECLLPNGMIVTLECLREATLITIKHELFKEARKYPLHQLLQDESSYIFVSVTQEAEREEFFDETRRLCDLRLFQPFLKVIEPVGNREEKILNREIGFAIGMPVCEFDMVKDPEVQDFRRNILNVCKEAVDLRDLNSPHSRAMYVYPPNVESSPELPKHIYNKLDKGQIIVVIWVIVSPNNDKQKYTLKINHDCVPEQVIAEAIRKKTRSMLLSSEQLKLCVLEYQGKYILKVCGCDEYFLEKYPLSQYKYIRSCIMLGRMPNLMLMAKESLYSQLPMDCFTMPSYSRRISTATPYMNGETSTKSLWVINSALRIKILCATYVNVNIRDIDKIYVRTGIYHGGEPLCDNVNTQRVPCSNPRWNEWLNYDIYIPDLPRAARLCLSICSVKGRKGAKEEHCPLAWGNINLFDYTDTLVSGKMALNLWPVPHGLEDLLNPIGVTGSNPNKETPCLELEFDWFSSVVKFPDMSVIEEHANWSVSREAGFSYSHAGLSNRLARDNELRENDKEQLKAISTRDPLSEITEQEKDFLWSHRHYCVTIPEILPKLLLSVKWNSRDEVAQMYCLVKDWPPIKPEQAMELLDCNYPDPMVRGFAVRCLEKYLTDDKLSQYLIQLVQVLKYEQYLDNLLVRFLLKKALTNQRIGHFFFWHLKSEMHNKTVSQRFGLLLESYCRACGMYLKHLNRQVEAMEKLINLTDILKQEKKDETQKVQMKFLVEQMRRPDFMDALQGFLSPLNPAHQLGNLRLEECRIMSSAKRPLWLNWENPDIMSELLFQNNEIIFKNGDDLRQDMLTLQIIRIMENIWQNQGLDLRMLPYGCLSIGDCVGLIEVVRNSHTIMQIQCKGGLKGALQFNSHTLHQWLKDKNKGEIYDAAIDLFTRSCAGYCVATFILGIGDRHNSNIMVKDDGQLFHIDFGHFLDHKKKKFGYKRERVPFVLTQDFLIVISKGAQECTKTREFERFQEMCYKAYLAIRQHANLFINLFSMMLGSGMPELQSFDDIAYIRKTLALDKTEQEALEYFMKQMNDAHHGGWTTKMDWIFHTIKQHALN

With `CC(=O)Nc1nc2ccc(-c3nn(Cc4cc5cccc(C)c5c(=O)n4-c4ccccc4)c4ncnc(N)c34)cc2s1`, the half-inhibitory concentration (IC50) fell in the range of 0.1 to 1 µM. Then `Cc1ccccc1-n1c(Cn2nc(-c3cnc4[nH]ccc4c3)c3c(N)ncnc32)cc2cccc(C)c2c1=O`, with above 10 µM; and `Cc1cccc2cc(Cn3nc(-c4cccc(O)c4)c4c(N)ncnc43)n(C3CCCCC3)c(=O)c12`, with above 10 µM; and `COc1ccccc1-n1c(Cn2nc(-c3cccc(O)c3)c3c(N)ncnc32)cc2cccc(C)c2c1=O`, with above 10 µM. Take `Cc1nc2c(N[C@@H](C)c3cc4cccc(C)c4c(=O)n3-c3ccccc3)ncnc2[nH]1`: the concentration for half-maximal inhibition (IC50) is above 10 µM.

The compound `Cc1cccnc1-n1c(Cn2nc(-c3cc(O)cc(F)c3)c3c(N)ncnc32)cc2cccc(C)c2c1=O` yielded a 50% inhibitory concentration (IC50) above 10 µM. The result for `Cc1ccccc1-n1c(Cn2nc(-c3ccc4nc(N)sc4c3)c3c(N)ncnc32)cc2cccc(C)c2c1=O` reads 0.1 to 1 µM; that for `Cc1cccc2cc([C@H](C)Nc3c(C#N)cnc4ccccc34)n(-c3ccccc3)c(=O)c12`, above 10 µM; that for `Cc1ccccc1-n1c(Cn2nc(-c3cn[nH]c3)c3c(N)ncnc32)cc2cccc(C)c2c1=O`, above 10 µM.

Compound `Cc1cccc2cc(Cn3nc(-c4cccc(O)c4)c4c(N)ncnc43)n(-c3ccccc3O)c(=O)c12` yielded an IC50 above 10 µM. `Cc1cccc2cc(C(C)Nc3ncnc4[nH]cnc34)n(-c3ccccc3F)c(=O)c12` (stereo unspecified) registered an IC50 above 10 µM. In turn, `Cc1cccc2cc(Cn3nc(-c4cc(O)cc(F)c4)c4c(N)ncnc43)n(C3CC3)c(=O)c12` displayed a 50% inhibitory concentration (IC50) of 0.1 to 1 µM.

On to `Cc1cccc2cc(Cn3nc(-c4cccc(O)c4)c4c(N)ncnc43)n(-c3ccccc3Cl)c(=O)c12`, for which the IC50 was above 10 µM. The result for `Cc1ccccc1-n1c(Cn2nc(Br)c3c(N)ncnc32)cc2cccc(C)c2c1=O` reads above 10 µM.

Regarding `Cc1ccccc1-n1c(Cn2nc(-c3ccc4nc(N)ccc4c3)c3c(N)ncnc32)cc2cccc(C)c2c1=O`, the IC50 lay within 0.1 to 1 µM.

In the case of `Cc1ccccc1-n1c(Cn2nc(C=CC(N)=O)c3c(N)ncnc32)cc2cccc(C)c2c1=O`, the IC50 is above 10 µM. The compound `Cc1cccc2cc(Cn3nc(-c4cc(O)cc(F)c4)c4c(N)ncnc43)n(C3CCCCC3)c(=O)c12` yielded an IC50 above 10 µM.

For the compound `Cc1ccccc1-n1c(Cn2nc(-c3ccc(O)c(Cl)c3)c3c(N)ncnc32)cc2cccc(C)c2c1=O`, the concentration for half-maximal inhibition (IC50) was above 10 µM.

For `Cc1cccc2cc(Cn3nc(C#C[C@@H](C)O)c4c(N)ncnc43)n(C3CCCC3)c(=O)c12`, the IC50 was above 10 µM. The compound `Cc1cccc2cc(Cn3nc(-c4cccc(O)c4)c4c(N)ncnc43)n(C3CCC3)c(=O)c12` registered a concentration for half-maximal inhibition (IC50) above 10 µM. For the compound `Cc1cccc2cc(Cn3nc(-c4ccc(F)c(O)c4)c4c(N)ncnc43)n(C(C)C)c(=O)c12`, the half-maximal inhibitory concentration (IC50) was above 10 µM.

Consider `Cc1ccccc1-n1c(C(C)Nc2ncnc3[nH]cnc23)cc2cccc(C)c2c1=O` (stereo unspecified), for which the half-maximal inhibitory concentration (IC50) is above 10 µM. `Cc1ccccc1-n1c(Cn2nc(-c3cccc(O)c3)c3c(N)ncnc32)cc2cccc(C)c2c1=O` showed an IC50 above 10 µM. Then `Cc1cccc2cc(Cn3nc(C#C[C@@H](C)O)c4c(N)ncnc43)n(C(C)C)c(=O)c12`, with above 10 µM; and `Cc1cccc2cc([C@H](C)Nc3nc(N)ncc3F)n(C3CC3)c(=O)c12`, with above 10 µM.

For `Cc1ccccc1-n1c(Cn2nc(I)c3c(N)ncnc32)cc2cccc(C)c2c1=O`, the IC50 is above 10 µM.

In turn, `Cc1ccccc1-n1c(Cn2nc(-c3ccc(O)c(F)c3)c3c(N)ncnc32)cc2cccc(C)c2c1=O` returned a half-inhibitory concentration (IC50) above 10 µM.

For the compound `Cc1ccccc1-n1c(Cn2nc(-c3cc(O)cc(F)c3)c3c(N)ncnc32)cc2ccccc2c1=O`, the IC50 was above 10 µM.

On to `Cc1ccccc1-n1c(Cn2nc(-c3ccc4cc[nH]c4c3)c3c(N)ncnc32)cc2cccc(C)c2c1=O`, for which the half-inhibitory concentration (IC50) was above 10 µM. The result for `Cc1cccc2cc(Cn3nc(C#C[C@@H](C)O)c4c(N)ncnc43)n(-c3ccccc3C(C)C)c(=O)c12` reads above 10 µM; that for `Cc1ccccc1-n1c(Cn2nc(-c3ccc(F)c(O)c3)c3c(N)ncnc32)cc2cccc(C)c2c1=O`, above 10 µM.
